Assay results reported in ChEMBL document CHEMBL1138422, “Anti-influenza virus activity of biflavonoids” (Bioorg Med Chem Lett, 2007).
In brackets after ≈: the same amount, converted by molar mass. Activity calls are given as the source filed them. No cut-off for these calls is given here.

What was measured:
[1] = Inhibition of influenza B/Ibaraki/2/85 virus sialidase after 10 mins by fluorometric assay; design: species or system Influenza B virus (B/Ibaraki/2/85)
[2] = Inhibition of influenza A/Guizhou/54/89(H3N2) virus sialidase after 10 mins by fluorometric assay; design: species or system Influenza A virus (A/Guizhou/54/89(H3N2))
[3] = Inhibition of influenza A/PR/8/34(H1N1) virus sialidase after 10 mins by fluorometric assay; design: species or system Influenza A virus (A/Puerto Rico/8/1934(H1N1))
MDCK = test: Cytotoxicity in influenza A/PR/8/34 virus infected MDCK cells after 3 days by MTT assay; type: cell-based, Canis lupus familiaris; conditions: dog, 72 h
Influenza A virus [4] = test: Antiinfluenza virus activity in mouse infected with influenza virus A/PR/8/34(H1N1) assessed as survival rate at 0.5 mg/kg administered intranasally after 10 days; type: functional, A/Puerto Rico/8/1934(H1N1)
[5] = tested on: Influenza A virus (A/Puerto Rico/8/1934(H1N1)); test: Antiinfluenza virus activity in mouse infected with influenza virus A/PR/8/34(H1N1) assessed as survival rate at 0.5 mg/kg administered intranasally after 21 days; type: functional, BALB/c
Influenza A virus [6] = test: Inhibition of influenza virus A/PR/8/34(H1N1) proliferation on MDCK cells at 12.5 ug/mL; type: functional, organism-based; conditions: A/Puerto Rico/8/1934(H1N1)

Compound | IC50 [1] | IC50 [2] | IC50 [3] | Activity (MDCK) | Activity (Influenza A virus [4]) | Activity [5] | Activity (Influenza A virus [6])
COc1c(O)cc(O)c2c(=O)cc(-c3ccc(O)cc3)oc12 [4'-HYDROXYWOGONIN] | 6.58 µg/mL (≈ 21.9 µM) | 8.95 µg/mL (≈ 29.8 µM) | 9.78 µg/mL (≈ 32.6 µM) | – | – | – | –
COC(=O)[C@@]1(Oc2ccc(-c3cc(=O)c4c(O)cc(O[C@]5(C(=O)OC)C[C@H](OC(C)=O)[C@@H](NC(C)=O)[C@H]([C@H](OC(C)=O)[C@@H](COC(C)=O)OC(C)=O)O5)c(-c5cc(-c6cc(=O)c7c(O)cc(OC)cc7o6)ccc5OC)c4o3)cc2)C[C@H](OC(C)=O)[C@@H](NC(C)=O)[C@H]([C@H](OC(C)=O)[C@@H](COC(C)=O)OC(C)=O)O1 (stereo in doubt; 7R) | – | 1.35 µg/mL (≈ 0.892 µM) | – | – | – | – | –
COc1cc(O)c2c(=O)cc(-c3ccc(OC)c(-c4c(O[C@]5(C(=O)O)C[C@H](O)[C@@H](NC(C)=O)[C@H]([C@H](O)[C@H](O)CO)O5)cc(O)c5c(=O)cc(-c6ccc(O)cc6)oc45)c3)oc2c1 (stereo in doubt; 8S) [listing 1 of 2 here] | 8.64 µg/mL (≈ 10.1 µM) | 0.99 µg/mL (≈ 1.15 µM) | 6.35 µg/mL (≈ 7.4 µM) | Non-toxic | 78% | 56% | –
COc1cc(O)c2c(=O)cc(-c3ccc(OC)c(-c4c(O[C@]5(C(=O)O)C[C@H](O)[C@@H](NC(C)=O)[C@H]([C@H](O)[C@H](O)CO)O5)cc(O)c5c(=O)cc(-c6ccc(O)cc6)oc45)c3)oc2c1 (stereo in doubt; 8R) [listing 1 of 2 here] | – | – | – | – | – | – | Active
COc1cc(O)c2c(=O)cc(-c3ccc(OC)c(-c4c(O[C@]5(C(=O)O)C[C@H](O)[C@@H](NC(C)=O)[C@H]([C@H](O)[C@H](O)CO)O5)cc(O)c5c(=O)cc(-c6ccc(O[C@]7(C(=O)O)C[C@H](O)[C@@H](NC(C)=O)[C@H]([C@H](O)[C@H](O)CO)O7)cc6)oc45)c3)oc2c1 (stereo in doubt; 9S) | 9.34 µg/mL (≈ 8.13 µM) | 0.94 µg/mL (≈ 0.818 µM) | 6.99 µg/mL (≈ 6.08 µM) | Non-toxic | – | – | –
COc1cc(O)c2c(=O)cc(-c3ccc(OC)c(-c4c(O)cc(O)c5c(=O)cc(-c6ccc(O)cc6)oc45)c3)oc2c1 [GINKGETIN] | > 100 µg/mL | 9.78 µg/mL (≈ 17.3 µM) | 55 µg/mL (≈ 97.1 µM) | Toxic | – | – | –
COC(=O)[C@@]1(Oc2cc(O)c3c(=O)cc(-c4ccc(O)cc4)oc3c2-c2cc(-c3cc(=O)c4c(O)cc(OC)cc4o3)ccc2OC)C[C@H](OC(C)=O)[C@@H](NC(C)=O)[C@H]([C@H](OC(C)=O)[C@@H](COC(C)=O)OC(C)=O)O1 (stereo in doubt; 6R) | – | > 10 µg/mL | 79.2 µg/mL (≈ 76.2 µM) | Non-toxic | – | – | –
COC(=O)[C@@]1(Oc2cc(O)c3c(=O)cc(-c4ccc(O)cc4)oc3c2-c2cc(-c3cc(=O)c4c(O)cc(OC)cc4o3)ccc2OC)C[C@H](OC(C)=O)[C@@H](NC(C)=O)[C@H]([C@H](OC(C)=O)[C@@H](COC(C)=O)OC(C)=O)O1 (stereo in doubt; 6S) | > 100 µg/mL | 1.1 µg/mL (≈ 1.06 µM) | > 100 µg/mL | – | – | – | –
COc1cc(O)c2c(=O)cc(-c3ccc(OC)c(-c4c(O[C@]5(C(=O)O)C[C@H](O)[C@@H](NC(C)=O)[C@H]([C@H](O)[C@H](O)CO)O5)cc(O)c5c(=O)cc(-c6ccc(O)cc6)oc45)c3)oc2c1 (stereo in doubt; 8R) [listing 2 of 2 here] | 9.11 µg/mL (≈ 10.6 µM) | 0.82 µg/mL (≈ 0.956 µM) | 5.5 µg/mL (≈ 6.41 µM) | – | 75% | 62.5% | –
COc1cc(O)c2c(=O)cc(-c3ccc(OC)c(-c4c(O[C@]5(C(=O)O)C[C@H](O)[C@@H](NC(C)=O)[C@H]([C@H](O)[C@H](O)CO)O5)cc(O)c5c(=O)cc(-c6ccc(O)cc6)oc45)c3)oc2c1 (stereo in doubt; 8S) [listing 2 of 2 here] | – | – | – | – | – | – | Active
COC(=O)[C@@]1(Oc2ccc(-c3cc(=O)c4c(O)cc(O[C@]5(C(=O)OC)C[C@H](OC(C)=O)[C@@H](NC(C)=O)[C@H]([C@H](OC(C)=O)[C@@H](COC(C)=O)OC(C)=O)O5)c(-c5cc(-c6cc(=O)c7c(O)cc(OC)cc7o6)ccc5OC)c4o3)cc2)C[C@H](OC(C)=O)[C@@H](NC(C)=O)[C@H]([C@H](OC(C)=O)[C@@H](COC(C)=O)OC(C)=O)O1 (stereo in doubt; 7S) | > 100 µg/mL | > 10 µg/mL | > 100 µg/mL | Non-toxic | – | – | –
COc1cc(O)c2c(=O)cc(-c3ccc(OC)c(-c4c(O[C@]5(C(=O)O)C[C@H](O)[C@@H](NC(C)=O)[C@H]([C@H](O)[C@H](O)CO)O5)cc(O)c5c(=O)cc(-c6ccc(O[C@]7(C(=O)O)C[C@H](O)[C@@H](NC(C)=O)[C@H]([C@H](O)[C@H](O)CO)O7)cc6)oc45)c3)oc2c1 (stereo in doubt; 9R) | 9.05 µg/mL (≈ 7.88 µM) | 6.57 µg/mL (≈ 5.72 µM) | 6.61 µg/mL (≈ 5.75 µM) | – | – | – | –
